In article PMC7932521, “2-aminobenzimidazoles for leishmaniasis: From initial hit discovery to in vivo profiling” (PLoS Neglected Tropical Diseases, 2021):
Like-named read-outs stand apart in the source and are kept apart here.

Tests used:
[1] = system: Leishmania infantum MHOM/MA(BE)/67/ITMAP263 amastigotes; assay: L. infantum intracellular amastigote assay in PMM; format: cell-based; conditions: for IC50: Leishmania infantum, read-out: L. infantum IC50; for SI: selectivity index (CC50 / IC50): CC50 / L. infantum IC50
Experimental: (§1) Leishmania infantum MHOM/MA(BE)/67/ITMAP263 amastigotes were collected from the spleen of infected donor Golden hamsters. Primary peritoneal mouse macrophages (PMM) were used as host cells for in vitro assays. PMM were collected from Swiss mice after 2 days of peritoneal stimulation with a 2% suspension of potato starch and maintained in RPMI-1640 medium supplemented with 200 mM L-glutamine, antibiotics and 5% FCS at 37°C and 5% CO2. Promastigotes of L. infantum chagasi (luciferase) (MHOM/BR/2005/NLC) obtained as described in Reimão et al.,[27] were grown in M199 medium supplemented with 10% FCS, 0.25% hemin, 32 μg/ml hygromycin and 2% sterile human urine at 25°C and 5% CO2.
(§2) Stock solutions of the compounds at 20 mM were prepared in 100% DMSO. Next, the compounds were serially pre-diluted in DMSO followed by a further dilution in demineralized water to assure a final in-test DMSO concentration below 1%. The compounds were tested at 4-fold dilutions starting at 64 μM.
For the antileishmania in vitro assays, 3×10^4 PMM/well were seeded in 96-well plates. After 24h, 5×10^5 amastigotes/well were added and incubated for 2h at 37°C. Next, the compounds in 4-fold serial dilutions were added and the plates were further incubated for 5 days (37°C, 5% CO2). Parasite burdens were assessed using an inverted microscope after Giemsa staining. The results were expressed as percent reduction in parasite burdens compared to negative control wells (100% growth) and IC50 values were determined. Values represent the geometric mean of at least two independent experiments. Miltefosine was used as the positive control in all plates.

[2] = system: PMM (Primary Mouse Macrophages); assay: Cytotoxicity on primary peritoneal mouse macrophages; format: cell-based; conditions: Mus musculus, Macrophage, read-out: PMM IC50
Experimental: as §1, §2

MRC-5 cytotoxicity = format: cell-based; conditions: human, MRC-5 cells; S1 Data
[3] = Experimental distribution coefficient (eLogD); format: physicochemical; conditions: pH 7.4
Experimental: To determine the lipophilicity of the compounds, a methodology based on the retention time of molecules in reverse stationary phase (Ascentis RP-Amide HPLC column) was used. The chromatogram was obtained using LC-MS/MS. Test compounds were prepared at 1.0 μg/mL by adding the stock solution at (1:1) mobile phases A:B + internal standard at 200nM (A: 5% methanol in 10mM ammonium acetate pH 7.4, B: 100% methanol), DMSO concentration must be lower than 2%. […] The retention time (in minutes) of each of the eight standards was plotted against their LogD values. The resulting equation for the calibration curve (y = mx + b) was used to calculate the LogD values for the test compounds.

[4] = Mouse liver microsomal stability; format: in vitro ADME; conditions: for microsomal CLint at 0.5 μM: CD1, mouse, liver microsomes
Experimental: The metabolic stability of the compounds was evaluated in human (pool of 200 donors, XenoTech) and mouse liver microsomes (CD1 mouse, GIBCO). Test compounds were prepared at a concentration of 0.5 μM and incubated with 0.25 mg/mL liver microsomes at pH 7.4 and 37°C. The reaction was started by addition of NADPH at […]. Samples were taken at 0, 5, 10, 15, 20 and 30 minutes. The reaction was stopped by the addition of acetonitrile:methanol (1:1) containing an internal standard (tolbutamide at 50 nM). Compounds were quantified by liquid chromatography triple quadrupole mass spectrometry (LC-MS/MS). Peak area ratios (analyte/internal standard) were converted to % remaining using the area ratio at time 0 as 100%. Half-life (t1/2 = ln(2)/k) in minutes and intrinsic clearance (Clint = k x 1000/(0.25)) in μL/min/mg were calculated using a non-linear regression from % remaining versus incubation time. From this plot, the slope (k) was determined. The analysis conditions were: analytical column (Gemini C18, […], Phenomenex), electrospray ionization source (ESI) in positive and negative mode, mobile phase A (water + 0.1% formic acid) and B (acetonitrile + 0.1% formic acid), flow rate of 0.7 mL/min.

[5] = Parallel artificial membrane permeability assay (PAMPA); format: in vitro ADME; conditions: PAMPA, S1 Data; read-out: PAMPA Pe
Experimental: To determine the passive permeability of the compounds, a 96-well plate containing membranes pre-coated with lipids (Corning Gentest # 353015) was used. The solutions of the compounds were prepared by diluting the stock solutions (10mM) in phosphate buffered saline (PBS) pH 6.5 at a final concentration of 10μM. The solutions diluted in PBS pH 6.5 were then added to the donor portion of the plate (300 μl/well), while PBS pH 7.4 (200 μl/well) was added to the acceptor portion. The two portions of the plate were then coupled, and the system was incubated for 5 h at 37°C. At the end of the incubation, samples were collected from the donor and acceptor plates, and then added to plates containing quench solution (10% water and 90% methanol: acetonitrile (50:50) + 50 nM tolbutamide). The final concentrations of compounds in the donor, acceptor, and initial solution (T0) wells were analyzed using LC-MS/MS. The results were used to calculate an effective permeability (Pe) value. The PAMPA assay was performed in triplicate (n = 3).

[6] = 120 h, intracellular amastigotes in PMM, 5 days
[7] = reverse stationary phase HPLC column (Ascentis RP-Amide), S1 Data
[8] = reverse-phase HPLC retention (Ascentis RP-Amide column), experimental
[9] = pH 7.4, S1 Data, read-out: MLM CLint
[10] = pH 7.4, mouse liver microsome intrinsic clearance, read-out: MLM Clint

Row | Structure (SMILES) | IC50 [1, 6] | IC50 ([1]; S1 Data) | IC50 [2] | CC50 (MRC-5 cytotoxicity) | chromatographic logD [3, 7] | chromatographic logD [3, 8] | microsomal CLint at 0.5 μM [4, 9] | Papp at 5 h, 10 μM [5] | SI: selectivity index (CC50 / IC50) [1] | MLM CLint ([4]; mouse liver microsome intrinsic clearance) | MLM CLint ([4]; S1 Data) | microsomal CLint at 0.5 μM [4, 10] | eLogD ([3]; experimental) | L. infantum IC50 ([1]; intracellular amastigotes in PMM, 5 days)
1 | CC(C)(C)n1c(NC(=O)Cc2ccc(F)cc2)nc2cc(F)ccc21 [Compound 19, Fc1cc(nc(NC(=O)Cc2ccc(F)cc2)n3C(C)(C)C)c3cc1] | 19 µM | 18.6 µM | > 64 µM | > 64 µM | 4.04 | 4 | 373 µL/min/mg | 6.35 ×10⁻⁶ cm/s |  |  |  |  |  | 
2 | CCn1c(NC(=O)Cc2ccc(F)cc2)nc2ccc(F)cc21 [Compound 16, Fc1cc2c(nc(NC(=O)Cc3ccc(F)cc3)n2CC)cc1] | 4.4 µM | 4.35 µM | > 64 µM | > 64 µM | 3.59 |  | 538 µL/min/mg | 19.4 ×10⁻⁶ cm/s |  |  |  |  |  | 
3 | CC(C)(C)Cn1c(NC(=O)c2ccccn2)nc2ccc(C#N)cc21 [Compound 40, CC(Cn1c(NC(=O)c2ccccn2)nc(c13)ccc(C#N)c3)(C)C] | 15 µM | 14.9 µM | 16 µM | 60.9 µM | 3.93 | 4 | 1030 µL/min/mg | 3.62 ×10⁻⁶ cm/s | 1 |  |  |  |  | 
4 | O=C(Cc1ccc(F)cc1)Nc1nc2cc(F)ccc2n1C1CCOCC1 [Compound 28, Fc1cc(nc(NC(=O)Cc2ccc(F)cc2)n3C4CCOCC4)c3cc1] | 13 µM | 12.7 µM | > 64 µM | > 64 µM | 3.32 |  | 133 µL/min/mg | 19.6 ×10⁻⁶ cm/s |  |  |  |  |  | 
5 | CCCn1c(NC(=O)Cc2ccc(F)cc2)nc2cc(F)c(F)cc21 [Compound 6, Fc1cc(n(CCC)c(NC(=O)Cc2ccc(F)cc2)n3)c3cc1F] | 2.2 µM | 2.19 µM | > 64 µM | > 64 µM | 4.04 |  |  | 13.6 ×10⁻⁶ cm/s | 29 | 399 µL/min/mg |  |  |  | 
6 | Cn1nccc1C(=O)Nc1nc2cccnc2n1CC(C)(C)C [Compound 54, CC(Cn1c(NC(=O)c2n(C)ncc2)nc(c13)cccn3)(C)C] | 7.8 µM | 7.75 µM | 32 µM | 43.7 µM | 4.04 | 4 |  | 11.7 ×10⁻⁶ cm/s | 4 |  | 222 µL/min/mg |  |  | 
7 | O=C(Cc1ccc(F)cc1)Nc1nc2cc(F)ccc2n1CCCN1CCOCC1 [Compound 27, Fc1cc(nc(NC(=O)Cc2ccc(F)cc2)n3CCCN4CCOCC4)c3cc1] | 24 µM | 23.5 µM | 45.2 µM | 60.9 µM | 3.42 |  | 335 µL/min/mg | 4.74 ×10⁻⁶ cm/s |  |  |  |  |  | 
8 | Cn1nccc1C(=O)Nc1nc2ccc(C#N)cc2n1C1CCOCC1 [Compound 32, O=C(c1ccnn1C)Nc2nc(ccc(C#N)c3)c3n2C4CCOCC4] |  | > 64 µM | > 64 µM | > 64 µM | 2.32 | 2.3 | < 23 µL/min/mg | 11 ×10⁻⁶ cm/s | 1 |  |  | 23 µL/min/mg |  | 
9 | CC(C)(C)Cn1c(NC(=O)c2ccn(CCO)n2)nc2ccc(C#N)cc21 [Compound 38, O=C(c1nn(CCO)cc1)Nc2nc(ccc(C#N)c3)c3n2CC(C)(C)C] |  | > 64 µM | > 64 µM | > 64 µM | 4.03 | 4 | < 23 µL/min/mg | 7.54 ×10⁻⁶ cm/s | 1 |  |  |  |  | 
10 | CCCn1c(NC(=O)Cc2ccc(F)cc2)nc2ccc(C#N)cc21 [Compound 8, n1c(c2n(CCC)c1NC(=O)Cc3ccc(F)cc3)ccc(C#N)c2] | 46 µM | 45.6 µM | 45.2 µM | > 64 µM | 3.6 |  | 226 µL/min/mg | 30.7 ×10⁻⁶ cm/s | 1 |  |  | 225 µL/min/mg | 3.6 | 
11 | Cn1ccc(C(=O)Nc2nc3ccc(C#N)cc3n2CC(F)(F)F)n1 [Compound 35, O=C(c1nn(C)cc1)Nc2nc(ccc(C#N)c3)c3n2CC(F)(F)F] | 26 µM | 25.7 µM | 32 µM | 58.2 µM | 4.15 |  |  | 13.9 ×10⁻⁶ cm/s | 1 |  | 73 µL/min/mg |  | 4.2 | 
12 | CC(C)(C)Cn1c(NC(=O)c2cccnc2)nc2ccc(C#N)cc21 [Compound 41, O=C(Nc1n(CC(C)(C)C)c(c2n1)cc(C#N)cc2)c3cccnc3] | 8.6 µM | 8.57 µM | 16 µM | > 64 µM | 3.9 |  |  | 18 ×10⁻⁶ cm/s | 2 |  | 87 µL/min/mg |  |  | 
13 | CCCn1c(NC(=O)Cc2ccc(F)cc2)nc2ccccc21 [Compound 2, CCCn1c(nc2c1cccc2)NC(Cc3ccc(cc3)F)=O] | 15 µM | 14.8 µM | 32 µM | > 64 µM | 3.97 |  | 2760 µL/min/mg | 6.63 ×10⁻⁶ cm/s | 2 |  |  |  | 4.0 | 
14 | O=C(Cc1ccc(Cl)cc1)Nc1nc2cc(F)ccc2[nH]1 [Compound 18, Fc1ccc([nH]c(NC(Cc2ccc(Cl)cc2)=O)n3)c3c1] |  | > 64 µM | > 64 µM | > 64 µM | 4.26 | 3.9 | 366 µL/min/mg | 6.04 ×10⁻⁶ cm/s |  |  |  |  |  | poor activity
15 | Cn1nccc1C(=O)Nc1nc2ccc(C#N)cc2n1CC(C)(C)O [Compound 49, O=C(c1ccnn1C)Nc2nc(ccc(C#N)c3)c3n2CC(O)(C)C] | 36 µM | 36 µM | > 64 µM | > 64 µM |  |  | < 23 µL/min/mg | 9.39 ×10⁻⁶ cm/s | 2 |  |  |  |  | 
16 | CN1CCC(n2c(NC(=O)c3ccnn3C)nc3ccc(C#N)cc32)CC1 [Compound 51, O=C(c1ccnn1C)Nc2nc(ccc(C#N)c3)c3n2C4CCN(C)CC4] | 20 µM | 20.2 µM | 50.8 µM | > 64 µM |  |  |  | 2.91 ×10⁻⁶ cm/s | 3 |  | 72 µL/min/mg |  |  | 
